Columns and labels:
Format in all cases: in vivo
[1] = system: pigweed (Amaranthus retroflexus); assay: Test A preemergence; settings: Amaranthus retroflexus, pre-emergence, 240 h; for pest or weed control at 31 g/ha: 31 g ai/ha, 0 to 100 scale (0 no effect, 100 complete control), read-out: Pigweed plant response rating; for pest or weed control at 125 g/ha: 125 g ai/ha, 0 to 100 scale, read-out: Plant response rating, Pigweed
From the text: (§1) Seeds of plant species selected from barnyardgrass (Echinochloa crus-galli), kochia (Kochia scoparia), ragweed (common ragweed, Ambrosia elatior), Italian ryegrass (Lolium multiflorum), large (Lg) crabgrass (Digitaria sanguinalis), giant foxtail (Setaria faberii), morningglory (Ipomoea spp.), pigweed (Amaranthus retroflexus), velvetleaf (Abutilon theophrasti), wheat (Triticum aestivum), and corn (Zea mays) were planted into a blend of loam soil and sand and treated preemergence with a directed soil spray using test chemicals formulated in a non-phytotoxic solvent mixture which included a surfactant.
(§2) At the same time, plants selected from these crop and weed species and also blackgrass (Alopecurus myosuroides), and galium (catchweed bedstraw, Galium aparine) were planted in pots containing the same blend of loam soil and sand and treated with postemergence applications of test chemicals formulated in the same manner. Plants ranged in height from 2 to 10 cm and were in the one- to two-leaf stage for the postemergence treatment. Treated plants and untreated controls were maintained in a greenhouse for approximately 10 days, after which time all treated plants were compared to untreated controls and visually evaluated for injury. Plant response ratings, summarized in Table A, are based on a 0 to 100 scale where 0 is no effect and 100 is complete control. A dash (-) response means no test result.

[2] = system: ragweed (common ragweed, Ambrosia elatior); assay: Test A preemergence; settings: Ambrosia artemisiifolia, pre-emergence, 240 h; for pest or weed control at 31 g/ha: 31 g ai/ha, 0 to 100 scale (0 no effect, 100 complete control), read-out: Ragweed plant response rating; for pest or weed control at 125 g/ha: 125 g ai/ha, 0 to 100 scale, read-out: Plant response rating, Ragweed
From the text: as §1, §2

[3] = system: barnyardgrass (Echinochloa crus-galli); assay: Test A preemergence; settings: Echinochloa crus-galli, pre-emergence, 240 h; for pest or weed control at 31 g/ha: 31 g ai/ha, 0 to 100 scale (0 no effect, 100 complete control), read-out: Barnyardgrass plant response rating; for pest or weed control at 125 g/ha: 125 g ai/ha, 0 to 100 scale, read-out: Plant response rating, Barnyardgrass
From the text: as §1, §2

kochia (Kochia scoparia) [4] = assay: Test A preemergence; settings: Bassia scoparia, pre-emergence, 240 h; for pest or weed control at 31 g/ha: 31 g ai/ha, 0 to 100 scale (0 no effect, 100 complete control), read-out: Kochia plant response rating; for pest or weed control at 125 g/ha: 125 g ai/ha, 0 to 100 scale, read-out: Plant response rating, Kochia
From the text: as §1, §2

[5] = system: giant foxtail (Setaria faberii); assay: Test A preemergence; settings: Setaria faberi, pre-emergence, 240 h; for pest or weed control at 31 g/ha: 31 g ai/ha, 0 to 100 scale (0 no effect, 100 complete control), read-out: Foxtail, Giant plant response rating; for pest or weed control at 125 g/ha: 125 g ai/ha, 0 to 100 scale, read-out: Plant response rating, Foxtail, Giant
From the text: as §1, §2

[6] = system: Italian ryegrass (Lolium multiflorum); assay: Test A preemergence; settings: Lolium multiflorum, pre-emergence, 240 h; for pest or weed control at 31 g/ha: 31 g ai/ha, 0 to 100 scale (0 no effect, 100 complete control), read-out: Ryegrass, Italian plant response rating; for pest or weed control at 125 g/ha: 125 g ai/ha, 0 to 100 scale, read-out: Plant response rating, Ryegrass, Italian
From the text: as §1, §2

[7] = system: pigweed (Amaranthus retroflexus); assay: Test A postemergence; settings: Amaranthus retroflexus, post-emergence, 240 h, 0 to 100 scale, read-out: Plant response rating, Pigweed; for pest or weed control at 31 g/ha: 31 g ai/ha; for pest or weed control at 125 g/ha: 125 g ai/ha
From the text: as §1, §2

[8] = system: blackgrass (Alopecurus myosuroides); assay: Test A postemergence; settings: Alopecurus myosuroides, post-emergence, 240 h, 0 to 100 scale, read-out: Plant response rating, Blackgrass; for pest or weed control at 31 g/ha: 31 g ai/ha; for pest or weed control at 125 g/ha: 125 g ai/ha
From the text: as §1, §2

[9] = system: ragweed (common ragweed, Ambrosia elatior); assay: Test A postemergence; settings: Ambrosia artemisiifolia, post-emergence, 240 h, 0 to 100 scale, read-out: Plant response rating, Ragweed; for pest or weed control at 31 g/ha: 31 g ai/ha; for pest or weed control at 125 g/ha: 125 g ai/ha
From the text: as §1, §2

corn (Zea mays) = assay: Test A postemergence; settings: Zea mays, post-emergence, 240 h, 0 to 100 scale; for Corn plant response rating (crop injury, 0 = no effect, 100 = complete kill) at 31 g/ha: 31 g ai/ha; for Corn plant response rating (crop injury, 0 = no effect, 100 = complete kill) at 125 g/ha: 125 g ai/ha
From the text: as §1, §2

[10] = system: galium (catchweed bedstraw, Galium aparine); assay: Test A postemergence; settings: Galium, post-emergence, 240 h, 0 to 100 scale, read-out: Plant response rating, Galium; for pest or weed control at 31 g/ha: 31 g ai/ha; for pest or weed control at 125 g/ha: 125 g ai/ha
From the text: as §1, §2

[11] = system: barnyardgrass (Echinochloa crus-galli); assay: Test A postemergence; settings: Echinochloa crus-galli, post-emergence, 240 h, 0 to 100 scale, read-out: Plant response rating, Barnyardgrass; for pest or weed control at 31 g/ha: 31 g ai/ha; for pest or weed control at 125 g/ha: 125 g ai/ha
From the text: as §1, §2

kochia (Kochia scoparia) [12] = assay: Test A postemergence; settings: Bassia scoparia, post-emergence, 240 h, 0 to 100 scale, read-out: Plant response rating, Kochia; for pest or weed control at 31 g/ha: 31 g ai/ha; for pest or weed control at 125 g/ha: 125 g ai/ha
From the text: as §1, §2

[13] = system: giant foxtail (Setaria faberii); assay: Test A postemergence; settings: Setaria faberi, post-emergence, 240 h, 0 to 100 scale, read-out: Plant response rating, Foxtail, Giant; for pest or weed control at 31 g/ha: 31 g ai/ha; for pest or weed control at 125 g/ha: 125 g ai/ha
From the text: as §1, §2

[14] = system: Italian ryegrass (Lolium multiflorum); assay: Test A postemergence; settings: Lolium multiflorum, post-emergence, 240 h, 0 to 100 scale, read-out: Plant response rating, Ryegrass, Italian; for pest or weed control at 31 g/ha: 31 g ai/ha; for pest or weed control at 125 g/ha: 125 g ai/ha
From the text: as §1, §2

[15] = system: wheat (Triticum aestivum); assay: Test A postemergence; settings: Triticum aestivum, post-emergence, 240 h, 0 to 100 scale, read-out: Plant response rating, Wheat; for plant injury at 31 g/ha: 31 g ai/ha; for plant injury at 125 g/ha: 125 g ai/ha
From the text: as §1, §2

| SMILES | pest or weed control at 31 g/ha [1] | pest or weed control at 125 g/ha [1] | pest or weed control at 31 g/ha [2] | pest or weed control at 125 g/ha [2] | pest or weed control at 31 g/ha [3] | pest or weed control at 125 g/ha [3] | pest or weed control at 31 g/ha (kochia (Kochia scoparia) [4]) | pest or weed control at 125 g/ha (kochia (Kochia scoparia) [4]) | pest or weed control at 31 g/ha [5] | pest or weed control at 125 g/ha [5] | pest or weed control at 31 g/ha [6] | pest or weed control at 125 g/ha [6] | pest or weed control at 31 g/ha [7] | pest or weed control at 125 g/ha [7] | pest or weed control at 31 g/ha [8] | pest or weed control at 125 g/ha [8] | pest or weed control at 31 g/ha [9] | pest or weed control at 125 g/ha [9] | Corn plant response rating (crop injury, 0 = no effect, 100 = complete kill) at 31 g/ha (corn (Zea mays)) | Corn plant response rating (crop injury, 0 = no effect, 100 = complete kill) at 125 g/ha (corn (Zea mays)) | further results |
| --- | --- | --- | --- | --- | --- | --- | --- | --- | --- | --- | --- | --- | --- | --- | --- | --- | --- | --- | --- | --- | --- |
| N#Cc1cccc(Oc2ncc(Br)cn2)c1Oc1ccc(Br)cn1 [Compound 12] | 60% | 100% | 0% | 0% | 0% | 30% | 0% | 20% | 0% | 70% | 0% | 0% | 10% | 100% | 0% | 50% | 0% | 0% | 0% | 20% | pest or weed control at 31 g/ha [10]: 10%; pest or weed control at 125 g/ha [10]: 50%; pest or weed control at 31 g/ha [11]: 0%; pest or weed control at 125 g/ha [11]: 20%; pest or weed control at 31 g/ha (kochia (Kochia scoparia) [12]): 0%; pest or weed control at 125 g/ha (kochia (Kochia scoparia) [12]): 20%; pest or weed control at 31 g/ha [13]: 0%; pest or weed control at 125 g/ha [13]: 40%; pest or weed control at 31 g/ha [14]: 0%; pest or weed control at 125 g/ha [14]: 0%; plant injury at 31 g/ha [15]: 0%; plant injury at 125 g/ha [15]: 20% |
| N#Cc1cccc(Oc2ncc(F)cn2)c1Oc1ccc(Br)cn1 [Compound 9] | 100% | 100% | 0% | 10% | 30% | 90% | 40% | 100% | 30% | 100% | 0% | 0% | 50% | 100% | 30% | 80% | 30% | 70% | 0% | 10% | pest or weed control at 31 g/ha [10]: 70%; pest or weed control at 125 g/ha [10]: 100%; pest or weed control at 31 g/ha [11]: 0%; pest or weed control at 125 g/ha [11]: 50%; pest or weed control at 31 g/ha (kochia (Kochia scoparia) [12]): 60%; pest or weed control at 125 g/ha (kochia (Kochia scoparia) [12]): 100%; pest or weed control at 31 g/ha [13]: 10%; pest or weed control at 125 g/ha [13]: 70%; pest or weed control at 31 g/ha [14]: 20%; pest or weed control at 125 g/ha [14]: 70%; plant injury at 31 g/ha [15]: 0%; plant injury at 125 g/ha [15]: 40% |

From patent publication US20170190671A1, “BIS(ARYL)CATECHOL DERIVATIVES AS HERBICIDES” (E I DU PONT DE NEMOURS AND COMPANY, priority 2014, published 2017)
